Laboratory results: DBAASP
≈ marks a conversion by molar mass, not a printed value.

Legend:
Test in all cases: ≥ marks a high value that may be exact or a test limit, other limits are often not marked, values filed in µg/mL are converted to µM
[1] = tested on: Xanthomonas vesicatoria 2133-2
[2] = tested on: Pseudomonas syringae EPS 94
[3] = tested on: Erwinia amylovora PMV 6076
[4] = tested on: Fusarium oxysporum f. sp. lycopersici ATCC 201829
[5] = tested on: Penicillium expansum EPS 26
[6] = tested on: Rhizopus stolonifer CECT 2344
[7] = tested on: Aspergillus niger CECT 2694
[8] = tested on: Vibrio harveyi ATCC 14126
[9] = tested on: Vibrio alginolyticus KCCM 2928
[10] = tested on: Vibrio ordalii KCCM 41669
[11] = tested on: Edwardsiella tarda FP4130
[12] = tested on: Aeromonas salmonicida RFAS1
[13] = tested on: Streptococcus iniae FP5228
[14] = tested on: Escherichia coli DH5alpha
[15] = tested on: Pseudomonas putida
[16] = tested on: Micrococcus luteus AB2010179
[17] = tested on: Pseudomonas fluorescens
[18] = tested on: Staphylococcus aureus AB94004
[19] = tested on: Klebsiella oxytoca AB2010143
[20] = tested on: Bacillus magaterium AB90008
[21] = tested on: Salmonella enterica AB2010185
[22] = tested on: Enterobacter cloacae AB2010162
[23] = tested on: Bacillus cereus
[24] = tested on: Staphylococcus aureus ATCC 43300
[25] = tested on: Salmonella enterica subsp. enterica serovar Typhi
[26] = tested on: Fusarium solani MTCC 10158
[27] = tested on: Candida albicans MTCC 227
[28] = tested on: Vibrio cholerae
[29] = tested on: Xanthomonas oryzae ITCC BB00026
[30] = tested on: Xanthomonas axonopodis ITCC BD00029
[31] = tested on: Vibrio vulnificus KCTC 2982
[32] = tested on: Edwardsiella tarda
[33] = tested on: Escherichia coli JM109
[34] = tested on: Vibrio campbellii KCCM 40684
[35] = tested on: Bacillus subtilis
[36] = tested on: Staphylococcus epidermidis
[37] = tested on: Escherichia coli O157:H7 ATCC 43895
[38] = tested on: Botrytis cinerea
[39] = tested on: Saccharomyces cerevisiae
[40] = tested on: Aspergillus fumigatus KCTC 6145
[41] = tested on: Aspergillus flavus KCTC 9471
[42] = tested on: Staphylococcus aureus
[43] = tested on: Escherichia coli
[44] = tested on: Fusarium verticillioides
[45] = tested on: Salmonella typhimurium
[46] = tested on: Listeria monocytogenes KCTC 3710
[47] = tested on: Trichosporon beigelii
[48] = tested on: Pseudomonas aeruginosa
[49] = tested on: Proteus vulgaris
[50] = tested on: Candida albicans KCTC 7270

Compound: CC[C@H](C)[C@H](NC(=O)[C@H](CCCCN)NC(=O)[C@H](CCCCN)NC(=O)[C@H](Cc1ccccc1)NC(=O)[C@H](CC(C)C)NC(=O)[C@H](CCCCN)NC(=O)[C@@H](N)Cc1c[nH]c2ccccc12)C(=O)N[C@@H](CC(C)C)C(=O)N[C@@H](CCCCN)C(=O)N[C@@H](Cc1ccc(O)cc1)C(=O)N[C@@H](CC(C)C)C(N)=O [WKLFKKILKYL]
- MIC [1]: 3.16 µM (≈ 4.68 µg/mL)
- MIC [2]: 3.16 µM (≈ 4.68 µg/mL)
- MIC [3]: 3.16 µM (≈ 4.68 µg/mL)
- MIC [4]: 0.849 µM (≈ 1.25 µg/mL)
- MIC [5]: 22.4 µM (≈ 33.1 µg/mL)
- MIC [6]: ≥ 35.4 µM
- MIC [7]: 17.3 µM (≈ 25.6 µg/mL)

Compound: CC(C)C[C@H](NC(=O)[C@H](CCCN=C(N)N)NC(=O)CNC(=O)[C@H](Cc1ccccc1)NC(=O)[C@@H](N)Cc1ccccc1)C(=O)N[C@@H](CCCCN)C(=O)N[C@@H](C)C(=O)N[C@H](C(=O)N[C@@H](Cc1ccccc1)C(=O)N[C@@H](CCCN=C(N)N)C(=O)NCC(=O)N[C@@H](C)C(=O)N[C@@H](CCCN=C(N)N)C(=O)N[C@@H](CCC(N)=O)C(=O)NCC(=O)N[C@@H](Cc1c[nH]c2ccccc12)C(=O)N[C@@H](CCCCN)C(=O)N[C@@H](CCC(=O)O)C(=O)N[C@@H](Cc1cnc[nH]1)C(=O)N[C@@H](CCCN=C(N)N)C(=O)N[C@@H](Cc1ccc(O)cc1)C(=O)O)C(C)C [FFGRLKAVFRGARQGWKEHRY]
- MIC [8]: 0.5 µM (≈ 1.31 µg/mL)
- MIC [9]: 0.5 µM (≈ 1.31 µg/mL)
- MIC [10]: 15.6 µM (≈ 40.7 µg/mL)
- MIC [11]: 15.6 µM (≈ 40.7 µg/mL)
- MIC [12]: 7.8 µM (≈ 20.4 µg/mL)
- MIC [13]: 7.8 µM (≈ 20.4 µg/mL)

Compound: CC[C@H](C)[C@H](NC(=O)[C@H](CC(C)C)NC(=O)[C@H](CCCCN)NC(=O)[C@H](CC(C)C)NC(=O)[C@H](C)NC(=O)CNC(=O)[C@H](CCCCN)NC(=O)[C@H](C)NC(=O)[C@H](CC(C)C)NC(=O)[C@H](C)NC(=O)CNC(=O)[C@H](Cc1c[nH]c2ccccc12)NC(=O)[C@@H](N)Cc1ccccc1)C(=O)N1CCC[C@H]1C(=O)N[C@@H](CO)C(=O)N[C@@H](CC(C)C)C(=O)N[C@H](C(=O)N[C@@H](CO)C(=O)N[C@@H](CO)C(=O)N[C@@H](Cc1ccccc1)C(=O)N[C@H](C(=O)N[C@@H](CCCCN)C(=O)N[C@@H](CCCCN)C(=O)N[C@@H](CC(=O)O)C(N)=O)[C@@H](C)O)C(C)C [FWGALAKGALKLIPSLVSSFTKKD]
- MIC [14]: 15.8 µM (≈ 40.7 µg/mL)
- MIC [15]: 20 µM (≈ 51.5 µg/mL)
- MIC [16]: 15.8 µM (≈ 40.7 µg/mL)
- MIC [17]: ≥ 40 µM
- MIC [18]: 5.6 µM (≈ 14.4 µg/mL)
- MIC [19]: ≥ 45 µM
- MIC [20]: 30 µM (≈ 77.3 µg/mL)
- MIC [21]: 30 µM (≈ 77.3 µg/mL)
- MIC [22]: ≥ 45 µM

Compound: NCCCC[C@H](NC(=O)[C@H](CCCCN)NC(=O)[C@H](CS)NC(=O)[C@@H]1CSSC[C@H](N)C(=O)N[C@@H](CCCN=C(N)N)C(=O)N[C@@H](Cc2c[nH]c3ccccc23)C(=O)N[C@@H](CCCN=C(N)N)C(=O)N[C@@H](Cc2c[nH]c3ccccc23)C(=O)N[C@@H](CCCCN)C(=O)N1)C(=O)O [CRWRWKCCKK]
- MIC [14]: 20 µM (≈ 27.9 µg/mL)
- MIC [23]: 10 µM (≈ 13.9 µg/mL)
- MIC [24]: 10 µM (≈ 13.9 µg/mL)
- MIC [25]: 10 µM (≈ 13.9 µg/mL)
- MIC [26]: 20 µM (≈ 27.9 µg/mL)
- MIC [27]: ≥ 40 µM
- MIC [28]: 20 µM (≈ 27.9 µg/mL)
- MIC [29]: 10 µM (≈ 13.9 µg/mL)
- MIC [30]: 5 µM (≈ 6.97 µg/mL)

Compound: CC[C@H](C)[C@H](NC(=O)[C@H](CC(C)C)NC(=O)[C@H](CCCN=C(N)N)NC(=O)[C@H](Cc1cnc[nH]1)NC(=O)[C@@H](NC(=O)[C@@H](NC(=O)[C@H](CCCCN)NC(=O)CNC(=O)[C@@H](NC(=O)CNC(=O)[C@@H](NC(=O)[C@H](CC(C)C)NC(=O)CNC(=O)[C@H](CC(N)=O)NC(=O)[C@H](Cc1ccccc1)NC(=O)[C@@H](NC(=O)[C@H](Cc1cnc[nH]1)NC(=O)[C@H](Cc1cnc[nH]1)NC(=O)[C@H](Cc1ccccc1)NC(=O)[C@@H](N)Cc1ccccc1)[C@@H](C)CC)C(C)C)C(C)C)[C@@H](C)O)[C@@H](C)CC)C(=O)O [FFHHIFNGLVGVGKTIHRLI]
- MIC [31]: 2.72 µM (≈ 6.28 µg/mL)
- MIC [8]: 0.9 µM (≈ 2.08 µg/mL)
- MIC [9]: 0.9 µM (≈ 2.08 µg/mL)
- MIC [10]: ≥ 1000 µM
- MIC [32]: 11 µM (≈ 25.4 µg/mL)
- MIC [33]: 2.72 µM (≈ 6.28 µg/mL)
- MIC [34]: 0.9 µM (≈ 2.08 µg/mL)
- MIC [13]: 1.9 µM (≈ 4.38 µg/mL)

Compound: CC[C@H](C)[C@H](NC(=O)[C@H](CCCCN)NC(=O)[C@H](CO)NC(=O)[C@H](Cc1ccccc1)NC(=O)[C@H](CO)NC(=O)[C@H](CCCCN)NC(=O)[C@H](CCC(=O)O)NC(=O)[C@H](CC(C)C)NC(=O)[C@H](CCCN=C(N)N)NC(=O)[C@H](CCCCN)NC(=O)[C@H](Cc1ccccc1)NC(=O)[C@@H](NC(=O)[C@H](CCCCN)NC(=O)[C@H](CCCCN)NC(=O)[C@H](C)N)C(C)C)C(=O)N[C@@H](CCC(N)=O)C(=O)N[C@@H](CC(N)=O)C(=O)N[C@@H](CC(=O)O)C(=O)N[C@@H](CCCCN)C(N)=O [AKKVFKRLEKSFSKIQNDK]
- MIC [35]: 6.25 µM (≈ 14.3 µg/mL)
- MIC [36]: 12.5 µM (≈ 28.7 µg/mL)
- MIC [37]: 12.5 µM (≈ 28.7 µg/mL)
- MIC [38]: ≥ 50 µM
- MIC [39]: 25 µM (≈ 57.3 µg/mL)
- MIC [40]: ≥ 50 µM
- MIC [41]: ≥ 50 µM
- MIC [42]: > 12.5 µM
- MIC [43]: 12.5 µM (≈ 28.7 µg/mL)
- MIC [44]: ≥ 50 µM
- MIC [45]: 12.5 µM (≈ 28.7 µg/mL)
- MIC [46]: 12.5 µM (≈ 28.7 µg/mL)
- MIC [47]: 12.5 µM (≈ 28.7 µg/mL)
- MIC [48]: 12.5 µM (≈ 28.7 µg/mL)
- MIC [49]: 12.5 µM (≈ 28.7 µg/mL)
- MIC [50]: 25 µM (≈ 57.3 µg/mL)
